According to patent US6348445B1, “Biologically active peptides with reduced toxicity in animals and a method for preparing same” (priority 1992, dated 2002):
Like-named read-outs stand apart in the source and are kept apart here. Where a SMILES comes first, the peptide text is derived from it. [ ]: non-standard residue; d: D form. The star is where a group is joined. Octanoyl = CCCCCCCC(=O)*; Orn = NCCC[C@H](N)C(=O)O

Assays:
Assay type in all cases: cell-based
[1] = system: P. aeruginosa strain ATCC 27853; settings: ATCC 27853
Description: (§1) Table I, which follows, indicates the Minimal Inhibitory Concentration (MIC) in […] of various peptides against S.aureus strain ATCC 25923(S), P. aeruginosa strain ATCC 27853(P), E. coli ATCC strain 25922(E), and C. 4albicans (CA). […] The peptides are unsubstituted at the N-terminal; substituted with an acetyl group at the N-terminal, as indicated by Ac-; substituted with an octanoyl group at the N-terminal, as indicated by Oct-; substituted with spinogosine, as indicated by Sph-; substituted with a succinyl group, as indicated by Suc-; substituted with a hexanoyl group, as indicated by Hex-; substituted with a heptanoyl group, as indicated by Hep-; substituted with a valeryl group, as indicated by Val-; substituted with a myristryl group, as indicated by Myr-; or substituted with an ibuprofyl group, as indicated by Ibu-;
(§2) The procedure for the anti-bacterial assay is based upon the guidelines of the National Committee for Clinical Laboratory Standards, Document M7-T2, Volume 8, No. 8, 1988, which document is entirely incorporated herein by reference.
(§3) Stock solutions of peptides, with and without the appropriate substitutions, were prepared at a concentration of 512 μg/ml in sterile deionized distilled water and stored at −70° C.
(§4) The stock peptide solution was diluted in serial dilutions (1:2) down the wells of a microtiter plate so that the final concentrations of peptides in the wells were 0.25, 0.50, 1, 2, 4, 8, 16, 32, 64, 128 and 256 μg/ml. 1-5×10^5 CFUs/ml of either S. aureus ATCC 25923, E. coli ATCC 25922, P. aeruginosa ATCC 27853, or C. albicans, were added to the wells in full strength Mueller Hinton broth (BBL 11443) from a mid-log culture. The inoculum was standardized spectrophotometrically at 600 nm and was verified by colony counts. The plates were incubated for 16-20 hours at 37° C., and the minimal inhibitory concentration (MIC) for each peptide was determined. Minimal inhibitory concentration is defined as the lowest concentration of peptide which produces a clear well in the microtiter plate. The minimal inhibitory concentration of each of the peptides with and/or without the appropriate substitutions is given in Table I below.
(§5) The in vitro anti-microbial activities of the methane sulfonate derivatives were determined according to the methods described in Examples 1 and 2. The activities against ATCC strains of S. aureus, E. coli, P. aeruginosa, and C. albicans, and the hemolysis of red blood cells were compared to the parent compound (Table IV). The activities for Compound 843 (Oct-SEQ ID NO:143) methane sulfonate against clinical strains of P. aeruginosa isolated from cystic fibrosis patients were compared to the parent compound (Table V). The activity for Compound 469 (Oct-SEQ ID NO:27) methane sulfonate against P. gingivalis was compared to the parent compound (Table VI).

[2] = system: E. coli ATCC strain 25922; assay: Minimal Inhibitory Concentration, microtiter broth dilution; settings: ATCC strain 25922
Description: as §1, §2, §3, §4, §5

C. albicans = system: C. albicans
Description: as §1, §2, §3, §4

CCCCCCCC(=O)N[C@@H](C)C(=O)N[C@@H](CCCCN)C(=O)N[C@@H](CCCCN)C(=O)N[C@@H](CC(C)C)C(=O)N[C@@H](CC(C)C)C(=O)N[C@@H](CCCCN)C(=O)N[C@@H](CCCCN)C(=O)N[C@@H](CC(C)C)C(=O)N[C@@H](CCCCN)C(=O)N[C@@H](CCCCN)C(=O)N[C@@H](CC(C)C)C(N)=O [Oct-(SEQ ID NO: 111)-NH2] (Octanoyl-AKKLLKKLKKL-NH2)
Minimal Inhibitory Concentration P [1]: 8 µg/mL | Minimal Inhibitory Concentration E [2]: 32 µg/mL | Minimal Inhibitory Concentration CA (C. albicans): 32 µg/mL

CCCCCCCC(=O)N[C@@H](CCCCN)C(=O)N[C@@H](CCCCN)C(=O)N[C@@H](CC(C)C)C(=O)N[C@@H](CC(C)C)C(=O)N[C@@H](CCCCN)C(=O)N[C@@H](CCCCN)C(=O)N[C@@H](CC(C)C)C(=O)N[C@@H](CCCCN)C(=O)N[C@@H](CCCCN)C(=O)N[C@@H](CC(C)C)C(N)=O [Oct-(SEQ ID NO: 109)-NH2] (Octanoyl-KKLLKKLKKL-NH2)
Minimal Inhibitory Concentration P [1]: 4 µg/mL | Minimal Inhibitory Concentration E [2]: 16 µg/mL | Minimal Inhibitory Concentration CA (C. albicans): 32 µg/mL

CCCCCCCC(=O)N[C@@H](CC(C)C)C(=O)N[C@@H](CCCN)C(=O)N[C@@H](CCCCN)C(=O)N[C@@H](CC(C)C)C(=O)N[C@@H](CC(C)C)C(=O)N[C@@H](CCCCN)C(=O)N[C@@H](CCCCN)C(=O)N[C@@H](CC(C)C)C(=O)N[C@@H](CCCCN)C(=O)N[C@@H](CCCCN)C(=O)N[C@@H](CC(C)C)C(N)=O [Oct-(SEQ ID NO: 141)-NH2] (Octanoyl-L[Orn]KLLKKLKKL-NH2)
Minimal Inhibitory Concentration P [1]: 4 µg/mL | Minimal Inhibitory Concentration E [2]: 8 µg/mL | Minimal Inhibitory Concentration CA (C. albicans): 32 µg/mL

CCCCCCCC(=O)N[C@H](CC(C)C)C(=O)N[C@H](CCCCN)C(=O)N[C@H](CCCCN)C(=O)N[C@H](CC(C)C)C(=O)N[C@H](CC(C)C)C(=O)N[C@H](CCCCN)C(=O)N[C@H](CCCCN)C(=O)N[C@H](CC(C)C)C(=O)N[C@H](CCCCN)C(=O)N[C@H](CCCCN)C(=O)N[C@H](CC(C)C)C(N)=O [Oct-D-(SEQ ID NO: 110)-NH2] (Octanoyl-[dL][dK][dK][dL][dL][dK][dK][dL][dK][dK][dL]-NH2)
Minimal Inhibitory Concentration P [1]: 4 µg/mL | Minimal Inhibitory Concentration E [2]: 16 µg/mL | Minimal Inhibitory Concentration CA (C. albicans): 32 µg/mL

CCCCCCCC(=O)N[C@@H](CC(C)C)C(=O)N[C@@H](CCCCN)C(=O)N[C@@H](CCCCN)C(=O)N[C@@H](CC(C)C)C(=O)N[C@@H](CC(C)C)C(=O)N[C@@H](CCCCN)C(=O)N[C@@H](CCCCN)C(=O)N[C@@H](CC(C)C)C(=O)N[C@@H](CCCCN)C(=O)N[C@@H](CCCCN)C(=O)N[C@@H](CC(C)C)C(N)=O [Oct-(SEQ ID NO: 110)-NH2] (Octanoyl-LKKLLKKLKKL-NH2)
Minimal Inhibitory Concentration P [1]: 4 µg/mL | Minimal Inhibitory Concentration E [2]: 8 µg/mL | Minimal Inhibitory Concentration CA (C. albicans): 32 µg/mL

CCCCCCCC(=O)N[C@@H](CC(C)C)C(=O)N[C@@H](CCCCN)C(=O)N[C@@H](CCCCN)C(=O)N[C@@H](CC(C)C)C(=O)N[C@@H](CCCCN)C(=O)N[C@@H](CCCCN)C(=O)N[C@@H](CC(C)C)C(N)=O [Oct-(SEQ ID NO: 106)-NH2] (Octanoyl-LKKLKKL-NH2)
Minimal Inhibitory Concentration P [1]: 32,64 μg/ml | Minimal Inhibitory Concentration E [2]: 128 µg/mL | Minimal Inhibitory Concentration CA (C. albicans; C. albicans, Table I): 64,128 μg/ml

CCCCCCCC(=O)N[C@@H](CCCCN)C(=O)N[C@@H](CCCCN)C(=O)N[C@@H](CC(C)C)C(=O)N[C@@H](CC(C)C)C(=O)N[C@@H](CCCCN)C(=O)N[C@@H](CCCCN)C(=O)N[C@@H](CC(C)C)C(=O)N[C@@H](CCCCN)C(=O)N[C@@H](CCCCN)C(=O)N[C@@H](CC(C)C)C(=O)N[C@@H](CC(C)C)C(=O)N[C@@H](CCCCN)C(=O)N[C@@H](CCCCN)C(=O)N[C@@H](CC(C)C)C(N)=O [Oct-(SEQ ID NO: 147)-NH2] (Octanoyl-KKLLKKLKKLLKKL-NH2)
Minimal Inhibitory Concentration P [1]: 32 µg/mL | Minimal Inhibitory Concentration E [2]: 32 µg/mL | Minimal Inhibitory Concentration CA (C. albicans): 128 µg/mL
